The values below come from article PMC9218239 (Current Research in Pharmacology and Drug Discovery, 2022).

Structures are written as SMILES. Read-outs that look alike come from different tables or passages of the source.

Data set [1] has as its system CYP1A2, 2C9, 2C19, 2D6, and 3A4 pooled human supersomes. Particulars: 10 μM, recorded from major to minor.
Data set [2] deals with CYP2C19 pooled human supersomes (Homo sapiens, UniProt P33261). The data set is described as follows: CYP2C19 supersome screening. Particulars: 10 μM; strongly metabolized = less than 80% of the drug remaining. It is filed as in vitro ADME.
Chain of CYP2C19 pooled human supersomes (P33261 whole entry): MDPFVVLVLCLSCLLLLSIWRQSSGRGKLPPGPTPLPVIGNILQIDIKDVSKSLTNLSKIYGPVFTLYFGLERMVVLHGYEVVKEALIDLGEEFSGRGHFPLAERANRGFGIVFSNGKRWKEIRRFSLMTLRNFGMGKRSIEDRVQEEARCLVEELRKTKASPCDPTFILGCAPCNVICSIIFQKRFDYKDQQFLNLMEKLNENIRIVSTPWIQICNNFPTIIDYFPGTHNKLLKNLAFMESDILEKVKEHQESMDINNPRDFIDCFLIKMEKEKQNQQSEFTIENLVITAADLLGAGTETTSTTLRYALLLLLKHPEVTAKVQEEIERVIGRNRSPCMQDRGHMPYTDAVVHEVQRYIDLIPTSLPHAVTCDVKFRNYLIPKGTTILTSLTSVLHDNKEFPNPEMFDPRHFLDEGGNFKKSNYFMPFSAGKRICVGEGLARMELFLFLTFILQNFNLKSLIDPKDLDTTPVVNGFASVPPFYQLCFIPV
Data set [3] deals with pooled cryopreserved primary human hepatocytes. Particulars: single drug, 10 μM, 3 h.
The target in data set [4] is CYP2C9 pooled human supersomes (Homo sapiens, UniProt P11712). Kind of data set: CYP2C9 supersome screening. It counts as in vitro ADME. The following applies: 10 μM; strongly metabolized = less than 80% of the drug remaining.
Chain of CYP2C9 pooled human supersomes (P11712 whole entry): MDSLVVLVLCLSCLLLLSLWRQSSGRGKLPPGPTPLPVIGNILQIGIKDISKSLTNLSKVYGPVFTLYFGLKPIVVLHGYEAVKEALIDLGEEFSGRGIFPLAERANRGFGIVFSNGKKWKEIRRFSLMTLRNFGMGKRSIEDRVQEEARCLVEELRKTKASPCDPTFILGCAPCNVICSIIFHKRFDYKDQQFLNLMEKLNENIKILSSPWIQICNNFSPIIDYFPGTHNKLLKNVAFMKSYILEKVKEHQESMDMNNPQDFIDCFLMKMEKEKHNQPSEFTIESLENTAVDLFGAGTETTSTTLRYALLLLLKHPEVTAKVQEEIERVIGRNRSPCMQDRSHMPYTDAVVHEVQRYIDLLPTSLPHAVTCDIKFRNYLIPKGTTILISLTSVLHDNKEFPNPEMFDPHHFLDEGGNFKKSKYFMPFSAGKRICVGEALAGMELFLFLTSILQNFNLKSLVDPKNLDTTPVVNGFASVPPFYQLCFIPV

For `CN(C)CCCC1(c2ccc(F)cc2)OCc2cc(C#N)ccc21` (centres unmarked) [Citalopram, citalopram], the “Metabolism Pathway: CYP Pathway (isoenzymes showing parent degradation)” value (“Metabolism Pathway: CYP Pathway” below) in data set [1] is “CYP 2D6∗, 2C19∗, 3A4, 2C9”; in data set [1] (listed as citalopram) it was “CYP2D6, 2C19, 3A4, and 2C9”. Besides, the “Drug remaining with CYP2C19 (strongly metabolized)” value in data set [2] is listed as “less than 80%”.

For the compound `COCCCC/C(=N\OCCN)c1ccc(C(F)(F)F)cc1` [Fluvoxamine, fluvoxamine], the “Metabolism Pathway: CYP Pathway” value in data set [1] was “CYP 2D6∗, 2C9, 2C19”; in data set [1] (listed as fluvoxamine) it was “CYP2D6, 2C9, and 2C19”.

Turning to `COc1cc2ncnc(Nc3ccc(F)c(Cl)c3)c2cc1OCCCN1CCOCC1` [Gefitinib, gefitinib], the “Metabolism Pathway: CYP Pathway” value in data set [1] is “CYP 2D6 ∗, 3A4∗, 1A2, 2C9, 2C19”; in data set [1] (listed as gefitinib) it was “CYP2D6, 3A4, 1A2, 2C9, and 2C19”.

With `Fc1ccc([C@@H]2CCNC[C@H]2COc2ccc3c(c2)OCO3)cc1` [Paroxetine, paroxetine], the “Potential metabolites observed in hepatocytes (alone) assays” value in data set [3] is “no potential metabolites observed”.

Regarding `CN[C@H]1CC[C@@H](c2ccc(Cl)c(Cl)c2)c2ccccc21` [Sertraline, sertraline], in data set [4], the “Drug remaining with CYP2C9 (strongly metabolized)” value is “less than 80%”. Moreover, the “Metabolism Pathway: CYP Pathway” value in data set [1] is “CYP 2D6∗, 2C9∗, 2C19∗, 1A2, 3A4”; in data set [1] (listed as sertraline) it was “CYP2D6, 2C9, 2C19, 1A2, and 3A4”. Moreover, in data set [2], the “Drug remaining with CYP2C19 (strongly metabolized)” value was “less than 80%”.

As to `COc1ccc(C(CN(C)C)C2(O)CCCCC2)cc1` (centres unmarked) [Venlafaxine, venlafaxine], the “Metabolism Pathway: CYP Pathway” value was “CYP 2D6∗, 2C19∗” in data set [1]; “CYP2D6 and 2C19” in data set [1] (listed as venlafaxine).
